# In patent publication US9428813B2, “DNA methylation analysis for the diagnosis, prognosis and treatment of adrenal neoplasms” (The United States of America, as Represented by the …, priority 2012, dated 2016):
# Test system: NCI-H295R cells
# Test: Gene expression in decitabine-treated NCI-H295R adrenocortical cells
# Type: cell-based
# Settings: human adrenocortical cells; including H19, S100A10, HOPX, ERBB3 and RUNX2
# Method: Studies were performed on human adrenocortical cells and the effect of decitabine on gene-expression of HTN3, H19, S100A10, FAM129A, HOPX, TAC1, UCHL1, ERBB3, BEGNT5, RUNX2, GJA3, and BGN was evaluated. […] As such, these studies indicate that demethylating agents are agents capable of regulating malignant adrenocortical tumor-related molecules and can be used to treat ACC.
smiles,measurement,value
"Nc1ncn([C@H]2C[C@H](O)[C@@H](CO)O2)c(=O)n1 [Decitabine, 5-azadeoxycytidine]",Effect on expression of malignant adrenocortical tumor-related molecules,significantly alter the expression
